Test results reported in paper PMC11672400, “Synthesis, Spectroscopic Characterization, Structural Analysis, and Evaluation of Anti-Tumor, Antimicrobial, and Antibiofilm Activities of Halogenoaminopyrazoles Derivatives” (Antibiotics, 2024).
In brackets after ≈: the same amount, converted by molar mass. Where two headings read alike, the source gives them in different places.

Key:
[1] = system: Enterococcus faecalis ATCC29212; test: Antibiofilm assay (crystal violet), MBIC; format: cell-based; settings: Enterococcus faecalis, ATCC29212, 24 h, 37 °C, read-out: Minimum biofilm inhibition concentration (MBIC), Enterococcus faecalis ATCC29212
Method in brief: (§1)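 Biofilms grown in nutrient broth with test substances for 24 h at 37 °C. After rinsing with sterile physiological water, attached cells were fixed 5 min with methanol, then crystal violet stained.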

[2] = system: Staphylococcus aureus ATCC25923; test: Antibiofilm assay (crystal violet), MBIC; format: cell-based; settings: 24 h, 37 °C; for minimal effective concentration: Staphylococcus aureus, ATCC25923, read-out: Minimum biofilm inhibition concentration (MBIC), Staphylococcus aureus ATCC25923
Method in brief: as §1

[3] = system: Pseudomonas aeruginosa ATCC27853; test: Antibiofilm assay (crystal violet), MBIC; format: cell-based; settings: Pseudomonas aeruginosa, ATCC27853, 24 h, 37 °C, read-out: Minimum biofilm inhibition concentration (MBIC), Pseudomonas aeruginosa ATCC27853
Method in brief: as §1

[4] = system: Escherichia coli ATCC25922; test: Antibiofilm assay (crystal violet), MBIC; format: cell-based; settings: Escherichia coli, ATCC25922, 24 h, 37 °C, read-out: Minimum biofilm inhibition concentration (MBIC), Escherichia coli ATCC25922
Method in brief: as §1

[5] = system: Enterococcus faecalis ATCC29212; test: Qualitative evaluation of antimicrobial activity (inhibition zone, spot on agar); format: cell-based; set-up: key: (+) inhibited bacterial growth; (-) did not inhibit bacterial growth; settings: 0.06 g/2 mL DMSO, 5 µL spot
Experimental: (§2) For testing the antimicrobial/antibiofilm activity, the concentration of the studied compounds was identical to 0.06 g/2 mL DMSO. 0.5 Standard McFarland suspension was used, which was inoculated onto Mueller Hinton agar plates, (Remel, Lenexa, KS, USA), 5 µL of each compound was spotted and incubated overnight at 37 °C. Antimicrobial activity was observed as zones of inhibition formed around the spot.

[6] = system: Staphylococcus aureus ATCC25923; test: as above; format: cell-based; set-up: key: (+) inhibited bacterial growth; (-) did not inhibit bacterial growth; settings: 0.06 g/2 mL DMSO, 5 µL spot
Experimental: as §2

[7] = system: Pseudomonas aeruginosa ATCC27853; test: as above; format: cell-based; set-up: key: (+) inhibited bacterial growth; (-) did not inhibit bacterial growth; settings: 0.06 g/2 mL DMSO, 5 µL spot
Experimental: as §2

[8] = system: Escherichia coli ATCC25922; test: as above; format: cell-based; set-up: key: (+) inhibited bacterial growth; (-) did not inhibit bacterial growth; settings: 0.06 g/2 mL DMSO, 5 µL spot
Experimental: as §2

[9] = system: HEp-2 epithelial tumor cells; test: MTT cell viability / anti-tumor activity; settings: Homo sapiens; for viability at 3.1 µg/mL / viability at 6.25 µg/mL / viability at 12.5 µg/mL / viability at 25 µg/mL / viability at 50 µg/mL: read-out: Cell viability on Hep2 cells (%); for IC50: read-out: IC50 µg/mL on HEp-2 Cells 48 h, HEp-2 epithelial tumor cells, MTT, 48 h
Experimental: The cytotoxicity of the halogenoaminopyrazole derivatives 4a–f and 5a–e was tested on L929 mouse fibroblast cells, and their anti-tumor activity was evaluated on the human carcinoma epithelial cell line HEp-2. The experiments were performed in a concentration range of 3.1–50 μg/mL.
The MTT test was used, 3-(4,5-dimethylthiazol-2-yl)-2,5-diphenyl tetrazolium bromide), which is reduced to insoluble purple-blue formazan crystals precipitated by living cells. Cell viability assessed using the MTT assay reflects the activity of mitochondrial enzymes in treated cells compared to the control culture of untreated cells.
To assess the biocompatibility of the substances, a stable mouse fibroblast cell line, NCTC (clone 929), was grown in minimal essential medium (MEM) with 10% fetal bovine serum (FBS) and 2 mM L-glutamine, along with 100 U/mL penicillin, 100 µg/mL streptomycin, and 500 µg/mL neomycin. The concentration of the compounds used was 0.06 g/2 mL DMSO.
In cytotoxicity experiments, compound solutions were utilized at concentrations of 3.1 μg/mL, 6.25 μg/mL, 12.5 μg/mL, 25 μg/mL, and 50 μg/mL. The NCTC cell suspension was placed into 96-well culture plates with a concentration of 4 × 10^4 cells/mL and incubated at 37 °C for 24 h in a 5% CO2 humidified atmosphere. The compounds under study were placed in sets of three at varying concentrations ranging from 3.1 μg/mL to 50 μg/mL in every well, and the plates were then kept under standard conditions for 48 h. Cell viability was determined through the utilization of the MTT assay. Next, the MTT solution was removed, then isopropanol was added to solubilize the formazan crystals. The colored solution was then measured for absorbance at 570 nm using a Berthold Technologies, LB 940 microplate reader (Bad Wildbad, Germany). The outcomes were determined based on Formula (1) while considering that the recorded optical density is directly related to the number of viable cells in the cell culture being examined [35, 36]. % cell viability = (OD sample/OD control) × 100%(1)
For each tested compound, a graph representing percentage cell viability versus concentrations (in the range 3.1–50 µg/mL) was obtained. Then, the IC50 value was calculated by using ED50 plus V1.0 software.

[10] = system: Enterococcus faecalis ATCC29212; test: MIC by serial microdilution in liquid medium; format: cell-based; settings: Enterococcus faecalis, ATCC29212; 24 h, 37 °C; read-out: Minimum inhibitory concentration, Enterococcus faecalis ATCC29212
Method in brief: (§3)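 Twofold serial dilutions from a DMSO stock (10 mg/mL) in Tryptone Soy Broth, inoculated with 10 µL of a 10^6 CFU/mL suspension, incubated 24 h at 37 °C. Growth judged visually and by OD 620 nm; MIC (µg/mL) is the lowest concentration without growth, run in triplicate.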

[11] = system: Staphylococcus aureus ATCC25923; test: MIC by serial microdilution in liquid medium; format: cell-based; settings: 24 h, 37 °C; for MIC: Staphylococcus aureus, ATCC25923, read-out: Minimum inhibitory concentration, Staphylococcus aureus ATCC25923
Method in brief: as §3

[12] = system: Pseudomonas aeruginosa ATCC27853; test: MIC by serial microdilution in liquid medium; format: cell-based; settings: Pseudomonas aeruginosa, ATCC27853; 24 h, 37 °C; read-out: Minimum inhibitory concentration, Pseudomonas aeruginosa ATCC27853
Method in brief: as §3

[13] = system: Escherichia coli ATCC25922; test: MIC by serial microdilution in liquid medium; format: cell-based; settings: Escherichia coli, ATCC25922; 24 h, 37 °C; read-out: Minimum inhibitory concentration, Escherichia coli ATCC25922
Method in brief: as §3

[14] = MTT cell viability / cytotoxicity on normal fibroblasts; format: cell-based, mouse; settings: mouse
Excerpt: (§4) Merck chemicals were utilized.
(§5) Untreated cells were used as control, considered 100% viable cells.

[15] = system: NCTC (clone 929) mouse fibroblast cells; test: as above; format: cell-based; settings: for IC50: Mus musculus, NCTC clone 929, NCTC normal fibroblasts, MTT, 48 h
Excerpt: as §4, §5

[16] = read-out: Cell viability on NCTC cells (%)
[17] = 48h, read-out: Cell viability on NCTC cells (%)
[18] = NCTC clone 929 (L929) mouse fibroblast cells
[19] = NCTC clone 929 (L929) mouse fibroblast cells, 48h

Compound	minimal effective concentration [1] [µg/mL]	minimal effective concentration [2] [µg/mL]	minimal effective concentration [3] [µg/mL]	minimal effective concentration [4] [µg/mL]	Qualitative antimicrobial activity, Enterococcus faecalis ATCC29212 [5]	Qualitative antimicrobial activity, Staphylococcus aureus ATCC25923 [6]	Qualitative antimicrobial activity, Pseudomonas aeruginosa ATCC27853 [7]	Qualitative antimicrobial activity, Escherichia coli ATCC25922 [8]	viability at 3.1 µg/mL ([9]; HEp-2, 24 h) [%]	viability at 6.25 µg/mL ([9]; HEp-2, 24 h) [%]	viability at 12.5 µg/mL ([9]; HEp-2, 24 h) [%]	viability at 25 µg/mL ([9]; HEp-2, 24 h) [%]	viability at 50 µg/mL ([9]; HEp-2, 24 h) [%]	viability at 3.1 µg/mL ([9]; HEp-2, 48 h) [%]	viability at 6.25 µg/mL ([9]; HEp-2, 48 h) [%]	viability at 12.5 µg/mL ([9]; HEp-2, 48 h) [%]	viability at 25 µg/mL ([9]; HEp-2, 48 h) [%]	viability at 50 µg/mL ([9]; HEp-2, 48 h) [%]	IC50 ([9]; HEp-2, 48 h) [µg/mL]	MIC [10] [µg/mL]	also measured
Cc1nn(CN(Cn2nc(C)c([N+](=O)[O-])c2C)c2ccc(I)cc2)c(C)c1[N+](=O)[O-] [5d, N,N-bis-[(3,5-dimetyl-4-nitro-1H-pyrazol-1-yl)-methyl]-4-iodoaniline]	1870 ± 0.15	930 ± 0.15	930 ± 0.15	1870 ± 0.15	-	-	-	-	88.45 ± 0.28	89.15 ± 0.73	91.41 ± 0.69	89.86 ± 0.48	89.86 ± 0.16	96.17 ± 0.13	78.61 ± 0.67	61.51 ± 0.34	45.75 ± 0.33	20.8	26.61 ± 0.11 (≈ 0.0507 mM)	1870 ± 0.05 (≈ 3.56 mM)	MIC [11]: 1870 ± 0.07 µg/mL (≈ 3.56 mM); MIC [12]: 1870 ± 0.04 µg/mL (≈ 3.56 mM); MIC [13]: 1870 ± 0.04 µg/mL (≈ 3.56 mM); viability at 24 h, 3.1 µg/mL ([14]; 3.1 µg/mL, read-out: Cell viability on NCTC cells (%)): 103 ± 1.49%; viability at 48 h, 3.1 µg/mL ([14]; 3.1 µg/mL, 48h, read-out: Cell viability on NCTC cells (%)): 93.58 ± 0.71%; viability at 24 h, 6.25 µg/mL [14, 16]: 108 ± 2.4%; viability at 48 h, 6.25 µg/mL [14, 17]: 103%; viability at 24 h, 12.5 µg/mL [14, 16]: 106 ± 2.05%; viability at 48 h, 12.5 µg/mL [14, 17]: 102 ± 3.03%; viability at 24 h, 25 µg/mL [14, 16]: 98.4 ± 3.87%; viability at 48 h, 25 µg/mL [14, 17]: 95.8 ± 2.12%; viability at 24 h, 50 µg/mL [14, 16]: 83 ± 2.9%; viability at 48 h, 50 µg/mL [14, 17]: 88.3 ± 1.55%; IC50 [15]: > 50 µg/mL
Cc1nn(CNc2ccc(F)cc2)c(C)c1[N+](=O)[O-] [4a, N-[(3,5-dimetyl-4-nitro-1H-pyrazol-1-yl)-methyl]-4-fluoroaniline]	930 ± 0.27	230	930 ± 0.28	930 ± 0.05	-	+	+	+	99.1 ± 3.42	94.4 ± 1.19	93.38 ± 0.92	91.3 ± 3.73	73.2 ± 2.71	93.05 ± 0.78	89 ± 1.5	83.8 ± 2.3	72.3 ± 1.99	36.4 ± 1.45	40.2 ± 1.26 (≈ 0.152 mM)	930 ± 0.25 (≈ 3.52 mM)	Minimum biofilm inhibition concentration (MBIC), Staphylococcus aureus ATCC25923 [2]: 230 ± 0.11 µg/mL; melting point: 117 to 119 °C; Minimum inhibitory concentration, Staphylococcus aureus ATCC25923 [11]: 230 ± 0.13 µg/mL (≈ 0.87 mM); MIC [11]: 230 µg/mL (≈ 0.87 mM); MIC [12]: 930 ± 0.27 µg/mL (≈ 3.52 mM); MIC [13]: 930 ± 0.14 µg/mL (≈ 3.52 mM); viability at 24 h, 3.1 µg/mL ([14]; NCTC clone 929 (L929) mouse fibroblast cells, 3.1 µg/mL): 99.6 ± 1.38%; viability at 24 h, 6.25 µg/mL [14, 18]: 99.3 ± 2.2%; viability at 48 h, 6.25 µg/mL [14, 19]: 111%; viability at 24 h, 12.5 µg/mL [14, 18]: 99 ± 2.51%; viability at 48 h, 12.5 µg/mL [14, 19]: 101 ± 1.48%; viability at 24 h, 25 µg/mL [14, 18]: 90.2 ± 1.71%; viability at 48 h, 25 µg/mL [14, 19]: 73.5 ± 2.96%; viability at 24 h, 50 µg/mL [14, 18]: 62.7 ± 1.88%; viability at 48 h, 50 µg/mL [14, 19]: 47.5 ± 1.31%; Cell viability on NCTC cells (%) ([15]; 6.25 µg/mL, 48h): 109.13±3.80%; IC50 [15]: 46.4 ± 1.33 µg/mL (≈ 0.176 mM)
